The test system of this test is C57BL/KsJ db/db mice. Kind of test: Hypoglycemic effect of single or combined oral administration in db/db mice (plasma glucose concentration). The class given is in vivo, mouse. The note with it: 14th day, 2 hours after oral administration; for Decreasing rate (of plasma glucose concentration vs control group): calculated from group means vs control group; for Plasma glucose concentration: mean±standard deviation for 6 mice, control group 519 ± 69. The protocol: As test animals, C57BL/KsJ db/db mice were used, which were created in Jackson Laboratory (USA) and known as an obesity, hyperlipemia, hyperinsulinemia, and insulin-resistant model (Journal of Clinical Investigation, 85, pp 962-967, 1990). Blood was collected from the orbital venous plexus of each 7-week-old db/db mouse using a heparin-treated capillary tube, and centrifugation was performed to collect plasma. Thereafter, the plasma glucose concentration (Glucose CII-Test Wako (Wako Pure Chemical Industries, Ltd.)), the insulin concentration (Lebis Insulin Kit: for mouse-T (SHIBAYAGI)), and the triglyceride concentration (Triglyceride E-Test Wako (Wako Pure Chemical Industries, Ltd.)) were measured for classification. The classification was performed so that distribution of each measurement item is uniform for each group by block allocation based on many variables in which the plasma glucose concentration is most emphasized using the measured values of the plasma glucose concentration, the body weight, the insulin concentration, and the triglyceride concentration. […] Two hours after the administration, blood was collected from the orbital venous plexus, and the plasma thereof was collected to measure the plasma glucose concentration. […] Each plasma glucose concentration is expressed as mean±standard deviation for 6 mice of each group. Each decreasing rate is calculated from ((mean of plasma glucose concentration of control group)−(mean of plasma glucose concentration of each group))/(mean of plasma glucose concentration of control group)×100, while each relative index is calculated from (mean of plasma glucose concentration of each group)/(mean of plasma glucose concentration of control group).

`O=C([O-])C(Cl)(Cl)CCCCCCCCCCc1ccc(Cl)cc1.[Na+]` [sodium 2,2-dichloro-12-(4-chlorophenyl)-dodecanoate]: the “Relative index (mean plasma glucose of group / mean of control group)” value is 0.49, the “Decreasing rate (of plasma glucose concentration vs control group)” value (shortened to “Decreasing rate”) was 51% and the Plasma glucose concentration came to 253 ± 75 mg/dL. For the same compound, for the setting “listed as sodium 2,2-dichloro-12-(4-chlorophenyl)-dodecanoate”, the “Decreasing rate” value is recorded as 51%.

For the compound `COc1ccc(Cl)cc1C(=O)NCCc1ccc(S(=O)(=O)NC(=O)NC2CCCCC2)cc1` [Glibenclamide], the “Relative index (mean plasma glucose of group / mean of control group)” value is on record as 0.79, the “Decreasing rate” value was 21% and the Plasma glucose concentration worked out at 412 ± 153 mg/dL. For the setting “listed as glibenclamide”, the “Decreasing rate” value is listed as 21%.

The values above are taken from US20050261349A1, “Medicine for prevention or treatment of diabetes” (priority 2004, published 2005).
